Experimental data from article PMC4685510, “A Cell Biologist’s Field Guide to Aurora Kinase Inhibitors” (Frontiers in Oncology, 2015).
Read-outs that look alike come from different tables or passages of the source.

Assays:
Experiment in all cases: biochemical
Assay type in all cases: biochemical
[1] = target: T1, 363 human kinases (including Aurora A/B/C) (Homo sapiens, UniProt O00444); conditions: PLK4/SAK; for remaining activity at 0.1 µM: 100 nM; for remaining activity at 0.1 µM / remaining activity at 0.5 µM: read-out: % Enzyme Activity (relative to DMSO controls)
T1 sequence (O00444 1-970): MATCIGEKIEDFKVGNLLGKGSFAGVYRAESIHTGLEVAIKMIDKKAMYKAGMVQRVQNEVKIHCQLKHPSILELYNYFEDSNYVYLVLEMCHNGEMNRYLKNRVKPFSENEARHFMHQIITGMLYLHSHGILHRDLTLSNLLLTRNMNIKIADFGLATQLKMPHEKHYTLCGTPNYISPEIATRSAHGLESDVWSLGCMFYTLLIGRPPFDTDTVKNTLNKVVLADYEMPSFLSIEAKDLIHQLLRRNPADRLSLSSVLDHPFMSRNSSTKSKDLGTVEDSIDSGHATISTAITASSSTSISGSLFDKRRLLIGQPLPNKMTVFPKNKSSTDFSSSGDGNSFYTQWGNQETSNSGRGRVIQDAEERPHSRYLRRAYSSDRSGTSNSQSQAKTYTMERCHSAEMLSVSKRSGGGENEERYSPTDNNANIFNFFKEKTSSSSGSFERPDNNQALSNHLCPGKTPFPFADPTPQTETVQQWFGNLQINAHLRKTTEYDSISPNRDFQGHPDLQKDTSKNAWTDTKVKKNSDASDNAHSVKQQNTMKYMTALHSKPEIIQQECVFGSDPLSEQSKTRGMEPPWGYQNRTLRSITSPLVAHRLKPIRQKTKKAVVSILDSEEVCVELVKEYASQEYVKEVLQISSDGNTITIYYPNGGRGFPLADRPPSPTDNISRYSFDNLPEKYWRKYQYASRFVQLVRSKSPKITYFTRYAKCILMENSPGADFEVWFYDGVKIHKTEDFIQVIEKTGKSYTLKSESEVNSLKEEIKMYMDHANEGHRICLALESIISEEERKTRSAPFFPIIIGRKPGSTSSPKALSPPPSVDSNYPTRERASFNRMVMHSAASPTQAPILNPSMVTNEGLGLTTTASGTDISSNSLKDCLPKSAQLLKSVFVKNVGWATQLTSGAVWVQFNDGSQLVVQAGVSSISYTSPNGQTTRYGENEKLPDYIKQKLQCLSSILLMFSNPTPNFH
Source text: (§1) However, the Aurora A/B selectivity ratios derived from our in vitro and in vivo data can be compared to prioritize inhibitors.

[2] = target: 363 human kinases (including Aurora A/B/C) (Homo sapiens, UniProt O43353); conditions: RIPK2; for remaining activity at 0.1 µM: 100 nM; for remaining activity at 0.1 µM / remaining activity at 0.5 µM: read-out: % Enzyme Activity (relative to DMSO controls)
Source text: as §1

[3] = target: 363 human kinases (including Aurora A/B/C) (Homo sapiens, UniProt P24941); conditions: for remaining activity at 0.1 µM: 100 nM; for remaining activity at 0.1 µM / remaining activity at 0.5 µM: read-out: % Enzyme Activity (relative to DMSO controls); for remaining activity at 0.5 µM / % Enzyme Activity (relative to DMSO controls): 500 nM
Source text: as §1

[4] = target: 363 human kinases (including Aurora A/B/C) (Homo sapiens, UniProt Q13153); conditions: PAK1; for remaining activity at 0.1 µM: 100 nM; for remaining activity at 0.1 µM / remaining activity at 0.5 µM: read-out: % Enzyme Activity (relative to DMSO controls)
Source text: as §1

[5] = target: T2, 363 human kinases (including Aurora A/B/C) (Homo sapiens, UniProt Q8TD08); conditions: ERK7/MAPK15, [ATP] 10 µM; for remaining activity at 0.1 µM: 100 nM; for remaining activity at 0.1 µM / remaining activity at 0.5 µM: read-out: % Enzyme Activity (relative to DMSO controls)
T2 sequence (Q8TD08 1-544): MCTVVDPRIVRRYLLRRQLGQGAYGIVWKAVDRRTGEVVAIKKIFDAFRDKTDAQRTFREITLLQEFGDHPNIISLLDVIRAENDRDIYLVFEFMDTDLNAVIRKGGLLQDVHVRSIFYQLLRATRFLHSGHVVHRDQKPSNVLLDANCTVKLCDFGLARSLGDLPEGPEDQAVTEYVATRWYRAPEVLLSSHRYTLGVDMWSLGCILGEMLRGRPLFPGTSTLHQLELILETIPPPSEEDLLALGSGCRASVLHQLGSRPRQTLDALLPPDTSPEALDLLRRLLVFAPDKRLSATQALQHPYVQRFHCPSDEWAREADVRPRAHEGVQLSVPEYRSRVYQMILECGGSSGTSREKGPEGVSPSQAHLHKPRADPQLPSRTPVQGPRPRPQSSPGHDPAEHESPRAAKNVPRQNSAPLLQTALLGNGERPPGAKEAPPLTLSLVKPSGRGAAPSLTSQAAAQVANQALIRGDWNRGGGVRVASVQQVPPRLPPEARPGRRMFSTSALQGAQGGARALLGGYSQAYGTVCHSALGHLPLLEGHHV
Source text: as §1

[6] = target: T3, 363 human kinases (including Aurora A/B/C) (Homo sapiens, UniProt Q96BR1); conditions: SGK3/SGKL; for remaining activity at 0.1 µM: 100 nM; for remaining activity at 0.1 µM / remaining activity at 0.5 µM: read-out: % Enzyme Activity (relative to DMSO controls)
T3 sequence (Q96BR1 1-496): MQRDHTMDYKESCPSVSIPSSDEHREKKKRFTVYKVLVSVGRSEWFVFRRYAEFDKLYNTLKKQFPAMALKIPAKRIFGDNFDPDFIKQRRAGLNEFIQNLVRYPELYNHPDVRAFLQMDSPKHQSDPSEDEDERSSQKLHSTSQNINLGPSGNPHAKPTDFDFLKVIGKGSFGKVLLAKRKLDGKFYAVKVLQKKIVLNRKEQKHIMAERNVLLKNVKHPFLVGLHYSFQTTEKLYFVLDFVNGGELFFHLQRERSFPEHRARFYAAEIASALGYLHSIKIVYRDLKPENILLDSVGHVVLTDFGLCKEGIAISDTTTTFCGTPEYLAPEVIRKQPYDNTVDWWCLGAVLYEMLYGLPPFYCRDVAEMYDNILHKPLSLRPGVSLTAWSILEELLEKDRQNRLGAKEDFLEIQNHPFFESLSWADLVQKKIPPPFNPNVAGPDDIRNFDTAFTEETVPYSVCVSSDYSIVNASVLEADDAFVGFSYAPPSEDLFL
Source text: as §1

[7] = target: 363 human kinases (including Aurora A/B/C) (Homo sapiens, UniProt Q9BYT3); conditions: STK33; for remaining activity at 0.1 µM: 100 nM; for remaining activity at 0.1 µM / remaining activity at 0.5 µM: read-out: % Enzyme Activity (relative to DMSO controls)
Source text: as §1

[8] = target: 363 human kinases (including Aurora A/B/C) (Homo sapiens, UniProt Q9Y4K4); conditions: KHS/MAP4K5; for remaining activity at 0.1 µM: 100 nM; for remaining activity at 0.1 µM / remaining activity at 0.5 µM: read-out: % Enzyme Activity (relative to DMSO controls)
363 human kinases (including Aurora A/B/C) (Homo sapiens, UniProt Q9Y4K4), sequence (Q9Y4K4 whole entry): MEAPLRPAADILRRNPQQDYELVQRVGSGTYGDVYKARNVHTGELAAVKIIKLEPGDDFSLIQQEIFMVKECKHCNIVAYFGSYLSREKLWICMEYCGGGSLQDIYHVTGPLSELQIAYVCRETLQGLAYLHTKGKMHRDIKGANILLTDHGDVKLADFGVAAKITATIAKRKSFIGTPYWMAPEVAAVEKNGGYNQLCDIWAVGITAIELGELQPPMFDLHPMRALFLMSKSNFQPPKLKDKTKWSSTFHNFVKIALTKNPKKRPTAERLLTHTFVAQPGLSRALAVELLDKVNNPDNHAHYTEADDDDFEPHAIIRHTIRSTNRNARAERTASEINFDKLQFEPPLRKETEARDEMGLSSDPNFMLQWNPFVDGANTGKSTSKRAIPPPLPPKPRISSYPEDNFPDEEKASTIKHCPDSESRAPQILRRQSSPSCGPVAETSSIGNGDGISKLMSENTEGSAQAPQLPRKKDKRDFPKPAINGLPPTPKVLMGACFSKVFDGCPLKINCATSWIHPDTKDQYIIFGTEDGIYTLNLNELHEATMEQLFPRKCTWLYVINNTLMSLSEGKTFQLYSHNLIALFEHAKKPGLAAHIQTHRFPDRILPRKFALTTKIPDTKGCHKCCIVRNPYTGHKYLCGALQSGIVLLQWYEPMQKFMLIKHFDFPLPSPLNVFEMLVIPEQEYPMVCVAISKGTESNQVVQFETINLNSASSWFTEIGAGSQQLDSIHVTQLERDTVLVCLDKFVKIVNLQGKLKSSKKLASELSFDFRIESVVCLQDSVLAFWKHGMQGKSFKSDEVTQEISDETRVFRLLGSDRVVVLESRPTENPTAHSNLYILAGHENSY
Source text: as §1

363 human kinases (including Aurora A/B/C) (Homo sapiens, UniProt Q9BYT3), sequence (Q9BYT3 whole entry): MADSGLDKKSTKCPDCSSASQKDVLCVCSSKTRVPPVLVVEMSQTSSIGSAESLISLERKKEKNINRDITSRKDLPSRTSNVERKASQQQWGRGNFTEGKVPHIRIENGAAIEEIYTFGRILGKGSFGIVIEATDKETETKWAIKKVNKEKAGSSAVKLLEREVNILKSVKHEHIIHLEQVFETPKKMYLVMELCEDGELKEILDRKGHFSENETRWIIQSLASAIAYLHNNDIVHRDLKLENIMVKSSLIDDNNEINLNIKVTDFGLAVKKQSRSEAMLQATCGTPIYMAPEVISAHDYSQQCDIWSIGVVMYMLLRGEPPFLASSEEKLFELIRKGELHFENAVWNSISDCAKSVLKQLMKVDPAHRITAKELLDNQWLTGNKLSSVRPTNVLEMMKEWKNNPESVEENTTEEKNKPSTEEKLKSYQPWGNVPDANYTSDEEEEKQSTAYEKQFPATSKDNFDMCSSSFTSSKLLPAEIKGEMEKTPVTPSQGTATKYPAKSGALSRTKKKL
363 human kinases (including Aurora A/B/C) (Homo sapiens, UniProt O43353), sequence (O43353 whole entry): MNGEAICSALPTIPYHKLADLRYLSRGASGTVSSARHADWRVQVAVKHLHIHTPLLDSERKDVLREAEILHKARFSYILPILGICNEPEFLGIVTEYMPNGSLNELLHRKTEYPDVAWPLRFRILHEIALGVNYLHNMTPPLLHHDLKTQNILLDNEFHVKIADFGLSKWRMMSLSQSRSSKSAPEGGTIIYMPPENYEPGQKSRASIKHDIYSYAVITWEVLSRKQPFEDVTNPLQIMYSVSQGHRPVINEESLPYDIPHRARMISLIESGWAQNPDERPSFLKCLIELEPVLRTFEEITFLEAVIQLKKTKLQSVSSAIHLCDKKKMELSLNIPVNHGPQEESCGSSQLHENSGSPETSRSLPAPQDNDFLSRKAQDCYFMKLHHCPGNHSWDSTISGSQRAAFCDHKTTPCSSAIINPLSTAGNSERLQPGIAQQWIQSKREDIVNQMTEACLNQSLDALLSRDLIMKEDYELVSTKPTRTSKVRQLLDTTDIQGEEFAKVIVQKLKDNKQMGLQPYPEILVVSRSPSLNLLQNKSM
363 human kinases (including Aurora A/B/C) (Homo sapiens, UniProt Q13153), sequence (Q13153 whole entry): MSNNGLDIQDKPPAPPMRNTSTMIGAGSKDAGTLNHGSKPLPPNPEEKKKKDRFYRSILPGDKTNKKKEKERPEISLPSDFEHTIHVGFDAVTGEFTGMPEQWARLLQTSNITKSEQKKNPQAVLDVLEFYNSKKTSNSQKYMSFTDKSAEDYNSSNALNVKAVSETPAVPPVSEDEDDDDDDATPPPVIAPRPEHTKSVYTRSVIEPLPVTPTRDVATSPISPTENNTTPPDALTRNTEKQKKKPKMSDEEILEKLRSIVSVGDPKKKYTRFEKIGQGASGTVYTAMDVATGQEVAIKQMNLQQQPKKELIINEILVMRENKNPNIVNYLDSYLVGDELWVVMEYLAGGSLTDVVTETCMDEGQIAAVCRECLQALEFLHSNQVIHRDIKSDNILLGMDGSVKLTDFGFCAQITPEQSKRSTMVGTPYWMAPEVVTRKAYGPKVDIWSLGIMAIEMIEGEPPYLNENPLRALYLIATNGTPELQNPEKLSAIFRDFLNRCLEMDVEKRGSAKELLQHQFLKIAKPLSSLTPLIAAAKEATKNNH

Row | SMILES | remaining activity at 0.1 µM [1] [%] | remaining activity at 0.1 µM [2] [%] | remaining activity at 0.1 µM ([3]; CDK2/Cyclin A1, [ATP] 100 µM) [%] | remaining activity at 0.1 µM ([3]; CDK2/cyclin A, [ATP] 100 µM) [%] | remaining activity at 0.1 µM ([3]; CDK2/cyclin E, [ATP] 5 µM) [%] | remaining activity at 0.1 µM ([3]; CDK2/cyclin O, [ATP] 30 µM) [%] | remaining activity at 0.1 µM [4] [%] | remaining activity at 0.1 µM [5] [%] | remaining activity at 0.1 µM [6] [%] | remaining activity at 0.1 µM [7] [%] | remaining activity at 0.1 µM [8] [%] | remaining activity at 0.5 µM ([1]; 500 nM) [%] | remaining activity at 0.5 µM ([2]; 500 nM) [%] | remaining activity at 0.5 µM ([3]; CDK2/Cyclin A1, [ATP] 100 µM) [%] | remaining activity at 0.5 µM ([3]; CDK2/cyclin A, [ATP] 100 µM) [%] | remaining activity at 0.5 µM ([3]; CDK2/cyclin E, [ATP] 5 µM) [%] | remaining activity at 0.5 µM ([3]; CDK2/cyclin O, [ATP] 30 µM) [%] | remaining activity at 0.5 µM ([4]; 500 nM) [%] | remaining activity at 0.5 µM ([5]; 500 nM) [%] | remaining activity at 0.5 µM ([6]; 500 nM) [%] | further results
1 | CCn1cc(-c2ccnc3[nH]c(-c4cccc(CN(C)C)c4)cc23)c(-c2ccc(NC(=O)N(C)C)cc2)n1 [GSK1070916] | 115 | 116 | 89.8 | 104 | 93 | 94.7 | 81.9 | 102 | 105 | 111 | 84 |  |  |  |  |  |  |  |  |  | 
2 | O=C(O)[C@]1(Cc2cccc(Nc3nccs3)n2)CC[C@@H](Oc2cccc(Cl)c2F)CC1 [MK-5108] | 21.9 | 89.1 | 100 | 97.7 | 90.3 | 88.6 | 93.7 | 83.7 | 106 | 79.3 | 96.2 | 9.25 | 60 | 73.4 | 75.7 | 83.3 | 84.7 | 81.2 | 64.2 | 105 | remaining activity at 0.5 µM ([7]; 500 nM): 70.5%; remaining activity at 0.5 µM ([8]; 500 nM): 92.4%
3 | O=C(c1cccc(Cl)c1F)N1CCN(Cc2cccc(Nc3nccs3)n2)CC1 [MK-8745] |  |  |  |  |  |  |  |  |  |  |  | 71.4 | 89.3 | 79.6 | 85.1 | 86.3 | 90.6 | 87.5 | 92.2 | 99.7 | % Enzyme Activity (relative to DMSO controls) ([1]; 500 nM): 70.47%; % Enzyme Activity (relative to DMSO controls) ([2]; 500 nM): 82.53%; % Enzyme Activity (relative to DMSO controls) ([3]; CDK2/Cyclin A1, [ATP] 100 µM): 75.87%; % Enzyme Activity (relative to DMSO controls) ([3]; CDK2/cyclin A, [ATP] 100 µM): 83.95%; % Enzyme Activity (relative to DMSO controls) ([3]; CDK2/cyclin E, [ATP] 5 µM): 85.62%; % Enzyme Activity (relative to DMSO controls) ([3]; CDK2/cyclin O, [ATP] 30 µM): 90.54%; % Enzyme Activity (relative to DMSO controls) ([4]; 500 nM): 85.62%; % Enzyme Activity (relative to DMSO controls) ([5]; 500 nM): 85.14%; % Enzyme Activity (relative to DMSO controls) ([6]; 500 nM): 98.27%; % Enzyme Activity (relative to DMSO controls) ([7]; 500 nM): 107.39%; remaining activity at 0.5 µM ([7]; 500 nM): 110%; % Enzyme Activity (relative to DMSO controls) ([8]; 500 nM): 93.71%; remaining activity at 0.5 µM ([8]; 500 nM): 94%
